For assay [1], the target named is T1, Axl (Homo sapiens (Human), UniProt P30530). Kind of assay: Cellular Axl phosphorylation assay. The format is cell-based. Conditions: HEK293 cells transfected with Axl cDNA, 1 hour incubation. The method in brief:
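Transiently Axl-transfected HEK293 cells, with a vector-only negative control, were treated with compound for 1 hour on the day after medium change. Axl phosphorylation was quantified by mesoscale detection.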

Assay [2] has as its target T1, Axl. The experiment in a line: Axl binding assay. As for the experimental part: Binding of the tracer to the kinase is detected using an EU-labeled anti-tag antibody. […] Binding of an inhibitor to the kinase competes for binding with the tracer, resulting in a loss of FRET-signal. At first a compound according to formula (I) was diluted in 20 mM Hepes pH 8.0, 1 mM DTT, 10 mM MgCl2 and 0.01% Brij35.

Experimental findings from patent US8999982B2, “Pharmaceutically active compounds as Axl inhibitors” (Lead Discovery Center GmbH, priority 2010, dated 2015) are described below.

pIC50: −log10 of the molar value.

T1 sequence (P30530 26-894): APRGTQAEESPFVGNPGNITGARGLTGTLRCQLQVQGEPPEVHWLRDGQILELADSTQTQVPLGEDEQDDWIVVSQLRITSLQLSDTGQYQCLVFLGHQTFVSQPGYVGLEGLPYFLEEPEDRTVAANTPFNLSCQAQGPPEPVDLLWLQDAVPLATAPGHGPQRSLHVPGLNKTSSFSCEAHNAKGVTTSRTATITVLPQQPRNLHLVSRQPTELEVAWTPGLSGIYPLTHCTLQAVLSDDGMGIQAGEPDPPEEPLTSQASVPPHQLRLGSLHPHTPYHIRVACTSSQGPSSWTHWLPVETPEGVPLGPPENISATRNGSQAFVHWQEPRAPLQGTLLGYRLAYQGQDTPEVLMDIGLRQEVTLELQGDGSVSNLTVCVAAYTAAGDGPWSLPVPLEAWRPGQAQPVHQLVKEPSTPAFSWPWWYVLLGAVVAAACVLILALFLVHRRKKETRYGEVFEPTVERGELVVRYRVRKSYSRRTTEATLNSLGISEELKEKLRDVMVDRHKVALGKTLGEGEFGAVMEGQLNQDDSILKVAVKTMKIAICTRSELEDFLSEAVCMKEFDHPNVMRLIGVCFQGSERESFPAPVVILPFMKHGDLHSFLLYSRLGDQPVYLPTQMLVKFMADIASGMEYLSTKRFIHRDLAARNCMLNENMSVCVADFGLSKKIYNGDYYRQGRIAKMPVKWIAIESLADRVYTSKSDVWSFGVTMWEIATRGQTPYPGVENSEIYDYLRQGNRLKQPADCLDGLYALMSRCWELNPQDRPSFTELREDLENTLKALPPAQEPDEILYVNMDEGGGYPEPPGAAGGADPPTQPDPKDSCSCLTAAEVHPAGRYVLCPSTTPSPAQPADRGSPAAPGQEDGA

With `COc1cc2c(Oc3ccc(NC(=O)c4nn(-c5ccc(F)cc5)cc4OC)cc3F)ccnc2cc1OCC1CCNCC1` [Example 73, N-[3-fluoro-4-[[6-methoxy-7-(4-piperidylmethoxy)-4-quinolyl]oxy]phenyl]-1-(4-fluorophenyl)-4-methoxy-pyrazole-3-carboxamide], the pIC50 against Axl [1] and at Axl [2] was above 6.30 in each case.

`CCOc1cn(-c2ccc(F)cc2C)nc1C(=O)Nc1ccc(Oc2ccnc3cc(OCC4CCNCC4)c(OC)cc23)c(F)c1` [Example 74, 4-ethoxy-N-[3-fluoro-4-[[6-methoxy-7-(4-piperidylmethoxy)-4-quinolyl]oxy]phenyl]-1-(4-fluoro-2-methyl-phenyl)pyrazole-3-carboxamide]: the negative-log IC50 (pIC50) against Axl [1] and on Axl [2] was above 6.30 in each case.

Take `COc1cc2c(Oc3ccc(NC(=O)c4nn(-c5ccc(F)cc5)cc4OCC4CC4)cc3F)ccnc2cc1OCC1CCNCC1` [Example 75, 4-(cyclopropylmethoxy)-N-[3-fluoro-4-[[6-methoxy-7-(4-piperidylmethoxy)-4-quinolyl]oxy]phenyl]-1-(4-fluorophenyl)pyrazole-3-carboxamide]: the pIC50 against Axl [1] and at Axl [2] was above 6.30 each time.

Take `COc1cc2c(Oc3ccc(NC(=O)c4nn(-c5ccc(F)cc5)cc4Br)cc3F)ccnc2cc1OCC1CCNCC1` [Example 76, 4-bromo-N-[3-fluoro-4-[[6-methoxy-7-(4-piperidylmethoxy)-4-quinolyl]oxy]phenyl]-1-(4-fluorophenyl)pyrazole-3-carboxamide]: the negative-log IC50 (pIC50) on Axl [1] and at Axl [2] was above 6.30 each time.

For the compound `COc1cc2c(Oc3ccc(NC(=O)c4nn(-c5ccc(F)cc5)cc4OCc4ccc(F)cc4)cc3F)ccnc2cc1OCC1CCNCC1` [Example 77, N-[3-fluoro-4-[[6-methoxy-7-(4-piperidylmethoxy)-4-quinolyl]oxy]phenyl]-1-(4-fluorophenyl)-4-[(4-fluorophenyl)methoxy]pyrazole-3-carboxamide], the pIC50 at Axl [1] and on Axl [2] was above 6.30 each time.

In the case of `COc1cc2c(Oc3ccc(NC(=O)c4cc(C)n(C(C)(C)C)n4)cc3F)ccnc2cc1OCC1CCNCC1` [Example 78, 1-tert-butyl-N-[3-fluoro-4-[[6-methoxy-7-(4-piperidylmethoxy)-4-quinolyl]oxy]phenyl]-5-methyl-pyrazole-3-carboxamide], the negative logarithm of the IC50 (pIC50) against Axl [1] and at Axl [2] was above 6.30 in each case.

Turning to `COc1cc2c(Oc3ccc(NC(=O)c4nc(-c5ccccc5)oc4C)cc3F)ccnc2cc1OCC1CCNCC1` [Example 80, N-[3-fluoro-4-[[6-methoxy-7-(4-piperidylmethoxy)-4-quinolyl]oxy]phenyl]-5-methyl-2-phenyl-oxazole-4-carboxamide], the negative logarithm of the IC50 (pIC50) against Axl [1] and at Axl [2] was above 6.30 in each case.

In the case of `COc1cc2c(Oc3ccc(NC(=O)c4csc(-c5ccccc5)n4)cc3F)ccnc2cc1OCC1CCNCC1` [Example 81, N-[3-fluoro-4-[[6-methoxy-7-(4-piperidylmethoxy)-4-quinolyl]oxy]phenyl]-2-phenyl-thiazole-4-carboxamide], the pIC50 at Axl [1] is 5.30 to 6.30; on Axl [2], above 6.30.

As to `CCOc1cn(-c2ccc(F)cc2C)nc1C(=O)Nc1ccc(Oc2ccnc3cc(OCC4CCN(CC)CC4)c(OC)cc23)c(F)c1` [Example 82, 4-ethoxy-N-[4-[[7-[(1-ethyl-4-piperidyl)methoxy]-6-methoxy-4-quinolyl]oxy]-3-fluoro-phenyl]-1-(4-fluoro-2-methyl-phenyl)pyrazole-3-carboxamide], the pIC50 against Axl [1] and on Axl [2] was above 6.30 each time.

As for `CCOc1cn(-c2ccc(F)cc2C)nc1C(=O)Nc1ccc(Oc2ccnc3cc(OCC4CCN(CC(C)C)CC4)c(OC)cc23)c(F)c1` [Example 83, 4-ethoxy-N-[3-fluoro-4-[[7-[(1-isobutyl-4-piperidyl)methoxy]-6-methoxy-4-quinolyl]oxy]phenyl]-1-(4-fluoro-2-methyl-phenyl)pyrazole-3-carboxamide], the pIC50 against Axl [1] and at Axl [2] was above 6.30 throughout.

With `CCOc1cn(-c2ccc(F)cc2)nc1C(=O)Nc1ccc(Oc2ccnc3cc(OC)c(OC)cc23)cn1` [Example 84, N-[5-[(6,7-dimethoxy-4-quinolyl)oxy]-2-pyridyl]-4-ethoxy-1-(4-fluorophenyl)pyrazole-3-carboxamide], the pIC50 on Axl [1] and on Axl [2] was above 6.30 in each case.

For the compound `CCOc1cn(-c2ccc(F)cc2C)nc1C(=O)Nc1ccc(Oc2ccnc3cc(OC)c(OC)cc23)cn1` [Example 85, N-[5-[(6,7-dimethoxy-4-quinolyl)oxy]-2-pyridyl]-4-ethoxy-1-(4-fluoro-2-methyl-phenyl)pyrazole-3-carboxamide], the pIC50 against Axl [1] and at Axl [2] was above 6.30 in each case.

In the case of `CCOc1cn(-c2ccc(F)cc2Cl)nc1C(=O)Nc1ccc(Oc2ccnc3cc(OC)c(OC)cc23)cn1` [Example 86, 1-(2-chloro-4-fluoro-phenyl)-N-[5-[(6,7-dimethoxy-4-quinolyl)oxy]-2-pyridyl]-4-ethoxy-pyrazole-3-carboxamide], the pIC50 against Axl [1] and at Axl [2] was above 6.30 in each case.

Take `COc1cc2nccc(Oc3ccc(NC(=O)c4nn(-c5ccc(F)cc5)cc4CCN(C)C)nc3)c2cc1OC` [Example 87, N-[5-[(6,7-dimethoxy-4-quinolyl)oxy]-2-pyridyl]-4-(2-dimethylaminoethyl)-1-(4-fluorophenyl)pyrazole-3-carboxamide]: the pIC50 against Axl [1] is above 6.30; on Axl [2], 5.30 to 6.30.

For `CCOc1cn(-c2ccc(OC)cc2C)nc1C(=O)Nc1ccc(Oc2ccnc3cc(OC)c(OC)cc23)cn1` [Example 89, N-(5-((6,7-dimethoxyquinolin-4-yl)oxy)pyridin-2-yl)-4-ethoxy-1-(4-methoxy-2-methylphenyl)-1H-pyrazole-3-carboxamide], the negative logarithm of the IC50 (pIC50) at Axl [1] and on Axl [2] was above 6.30 throughout.

In the case of `CCOc1cn(-c2cccc([N+](=O)[O-])c2)nc1C(=O)Nc1ccc(Oc2ccnc3cc(OC)c(OC)cc23)c(F)c1` [Example 90, N-(4-((6,7-dimethoxyquinolin-4-yl)oxy)-3-fluorophenyl)-4-ethoxy-1-(3-nitrophenyl)-1H-pyrazole-3-carboxamide], the pIC50 against Axl [1] and on Axl [2] was above 6.30 each time.

Take `CCOc1cn(-c2ccc(OC)cc2C)nc1C(=O)Nc1ccc(Oc2ccnc3cc(OC)c(OC)cc23)c(F)c1` [Example 91, N-(4-((6,7-dimethoxyquinolin-4-yl)oxy)-3-fluorophenyl)-4-ethoxy-1-(4-methoxy-2-methylphenyl)-1H-pyrazole-3-carboxamide]: the pIC50 at Axl [1] and on Axl [2] was above 6.30 each time.

As to `CCOc1cn(-c2cccc([N+](=O)[O-])c2)nc1C(=O)Nc1ccc(Oc2ccnc3cc(OC)c(OC)cc23)cn1` [Example 92, N-(5-((6,7-dimethoxyquinolin-4-yl)oxy)pyridin-2-yl)-4-ethoxy-1-(3-nitrophenyl)-1H-pyrazole-3-carboxamide], the negative-log IC50 (pIC50) on Axl [1] and on Axl [2] was above 6.30 each time.

In the case of `CCOc1cn(-c2ccc(F)cc2C)nc1C(=O)Nc1ccc(Oc2ccnc3cc(OC)c(OC)cc23)cc1OC` [Example 94, N-(4-((6,7-dimethoxyquinolin-4-yl)oxy)-2-methoxyphenyl)-4-ethoxy-1-(4-fluoro-2-methylphenyl)-1H-pyrazole-3-carboxamide], the pIC50 at Axl [1] and at Axl [2] was above 6.30 throughout.

For `CCOc1cn(-c2ccc(F)cc2C)nc1C(=O)Nc1ccc(Oc2ccnc3cc(OC)c(OC)cc23)cc1C` [Example 95, N-(4-((6,7-dimethoxyquinolin-4-yl)oxy)-2-methylphenyl)-4-ethoxy-1-(4-fluoro-2-methylphenyl)-1H-pyrazole-3-carboxamide], the pIC50 on Axl [1] was 5.30 to 6.30; on Axl [2], above 6.30.

On to `CCOc1cn(-c2ccc(F)c(OC)c2)nc1C(=O)Nc1ccc(Oc2ccnc3cc(OC)c(OC)cc23)c(F)c1` [Example 96, N-(4-((6,7-dimethoxyquinolin-4-yl)oxy)-3-fluorophenyl)-4-ethoxy-1-(4-fluoro-3-methoxyphenyl)-1H-pyrazole-3-carboxamide], for which the pIC50 on Axl [1] and on Axl [2] was above 6.30 throughout.

In the case of `CCOc1cn(-c2ccc(F)c(OC)c2)nc1C(=O)Nc1ccc(Oc2ccnc3cc(OC)c(OC)cc23)cn1` [Example 97, N-(5-((6,7-dimethoxyquinolin-4-yl)oxy)pyridin-2-yl)-4-ethoxy-1-(4-fluoro-3-methoxyphenyl)-1H-pyrazole-3-carboxamide], the negative logarithm of the IC50 (pIC50) against Axl [1] and on Axl [2] was above 6.30 throughout.

As to `CCOc1cn(-c2ccc([N+](=O)[O-])cc2)nc1C(=O)Nc1ccc(Oc2ccnc3cc(OC)c(OC)cc23)cn1` [Example 98, N-(5-((6,7-dimethoxyquinolin-4-yl)oxy)pyridin-2-yl)-4-ethoxy-1-(4-nitrophenyl)-1H-pyrazole-3-carboxamide], the values for the pIC50 against Axl [1] and at Axl [2] were above 6.30 and 5.30 to 6.30, respectively.

As to `CCOc1cn(-c2ccc(N)cc2)nc1C(=O)Nc1ccc(Oc2ccnc3cc(OC)c(OC)cc23)cn1` [Example 99, 1-(4-aminophenyl)-N-(5-((6,7-dimethoxyquinolin-4-yl)oxy)pyridin-2-yl)-4-ethoxy-1H-pyrazole-3-carboxamide], the negative logarithm of the IC50 (pIC50) against Axl [1] and at Axl [2] was above 6.30 throughout.

With `COc1cc2c(Oc3ccc(NC(=O)c4nc(-c5ccccc5)cs4)nc3)ccnc2cc1OCC1CCNCC1` [Example 101, N-(5-((6-methoxy-7-(piperidin-4-ylmethoxy)quinolin-4-yl)oxy)pyridin-2-yl)-4-phenylthiazole-2-carboxamide], the pIC50 against Axl [1] and on Axl [2] was above 6.30 throughout.

With `COc1cc2c(Oc3ccc(NC(=O)c4nc(Br)cs4)nc3)ccnc2cc1OCC1CCNCC1` [Example 102, 4-bromo-N-(5-((6-methoxy-7-(piperidin-4-ylmethoxy)quinolin-4-yl)oxy)pyridin-2-yl)thiazole-2-carboxamide], the negative logarithm of the IC50 (pIC50) against Axl [1] and at Axl [2] was above 6.30 in each case.
